# From patent US12552811B2, “Immunosuppressant, and preparation method therefor and use thereof” (Abbisko Therapeutics Co., Ltd., priority 2020, dated 2026)
# Assay: Jurkat reporter gene cellular assay
# Assay type: cell-based
# Conditions: Homo sapiens; Jurkat/NF-κB-luc/PD1 + Raji-PD-L1 coculture, OKT3 1 μg/mL, 6 hrs, activation fold; read-out: Cell Activity EC50
# Protocol: The effect of compounds of the examples of the present invention and positive compounds on the interaction between PD-1 and PD-L1 expressed on cell surfaces, and the related influence on T cell functions, were determined by a Jurkat reporter gene cellular assay.
# Briefly, the reporter gene plasmid of NF-κB-luc and the plasmid of human PD-1 were transfected into Jurkat cells to establish a stably transfected cell line capable of stably expressing both PD-1 and NF-κB-Luc reporter genes; the expression level of PD-1 on the cell surface was confirmed by flow cytometry; and the expression of the reporter gene was confirmed via the response of the reporter gene stimulated by OKT-3 and Raiji cells.
# In addition, the plasmid of human PD-L1 was transfected into Raji cells to obtain a cell line capable of stably expressing PD-L1. Jurkat/NF-κB-luc/PD1 cells and Raji-PD-L1 cells were then cocultured and stimulated with OKT-3. On this basis, the compounds were added, and the enhancement of the signal pathway of T cell activation by the inhibitory effect of the compounds on the interaction between PD-1 and PD-L1 was evaluated by readings of reporter gene responses. The specific experimental process was as follows: • 1) 30 μL of compound or antibody solution was added to each well of a white 96-well plate (coming, 3610) at different diluted concentrations, and 10 μL of OKT3 (Biolegend, 317326) was then added (the final concentration of OKT3: 1 μg/mL); • 2) 20 μL of Raji-PD-L1 cell suspension was added to each well with 5*10^4 cells for each well, and was incubated in an incubator for 20 min: • 3) 20 μL of Jurkat/NF-κb-luc/PD-1 cell suspension was added to each well with 5*10^4 cells for each well, and well mixed, and 6 hrs later, Bright-glo (Promega, E2620) was applied and plates were read on Envision; • 4) The reading of each well treated with the compound was compared with the reading of each well treated with DMSO to obtain the activation fold of the compound; • 5) EC50 values of compounds and positive compounds of the examples of the present invention were determined by non-linear regression analysis of activation folds at different compound concentrations.
row,EC50,SMILES
1,108 nM,"Cn1c(C(=O)Nc2cccc(-c3cccc(NC(=O)c4cc5c(cn4)CN(C4CCC4)CC5)c3Cl)c2Cl)nc2c1CCN(CCC13CCC(C(=O)O)(CC1)C3)C2 [Example 5, 4-(2-(2-((2,2′-dichloro-3′-(7-cyclobutyl-5,6,7,8-tetrahydro-2,7-naphthyridine-3-carboxamido)-[1,1′-biphenyl]-3-yl)carbamoyl)-1-methyl-1,4,6,7-tetrahydro-5H-imidazo[4,5-c]pyridin-5-yl)ethyl)bicyclo [2.2.1]heptane-1-carboxylic acid]"
2,59.8 nM,"C[C@@H](O)CN1CCc2cc(C(=O)Nc3cccc(-c4cccc(NC(=O)c5nc6c(n5C)CCN(CCC57CCC(C(=O)O)(CC5)C7)C6)c4Cl)c3Cl)ncc2C1 [Example 8, (R)-4-(2-(2-((2,2′-dichloro-3′-(7-(2-hydroxypropyl)-5,6,7,8-tetrahydro-2,7-naphthyridine-3-carboxamido)-[1,1′-biphenyl]-3-yl)carbamoyl)-1-methyl-1,4,6,7-tetrahydro-5H-imidazo[4,5-c]pyridin-5-yl)ethyl)bicyclo[2.2.1]heptane-1-carboxylic acid]"
3,177 nM,"Cn1c(C(=O)Nc2cccc(-c3cccc(NC(=O)c4cc5c(cn4)CN(CCCO)CC5)c3Cl)c2Cl)nc2c1CCN(CCC13CCC(C(=O)O)(CC1)C3)C2 [Example 9, 4-(2-(2-((2,2′-dichloro-3′-(7-(3-hydroxypropyl)-5,6,7,8-tetrahydro-2,7-naphthyridine-3-carboxamido)-[1,1′-biphenyl]-3-yl)carbamoyl)-1-methyl-1,4,6,7-tetrahydro-5H-imidazo[4,5-c]pyridin-5-yl)ethyl) bicyclo[2.2.1]heptane-1-carboxylic acid]"
4,114 nM,"Cn1c(C(=O)Nc2cccc(-c3cccc(NC(=O)c4cc5c(cn4)CN([C@H]4CC[C@@H](O)CC4)CC5)c3Cl)c2Cl)nc2c1CCN(CCC13CCC(C(=O)O)(CC1)C3)C2 [Example 12, 4-(2-(2-((2,2′-dichloro-3′-(7-((1S,4S)-4-hydroxycyclohexyl)-5,6,7,8-tetrahydro-2,7-naphthyridine-3-carboxamido)-[1,1′-biphenyl]-3-yl)carbamoyl)-1-methyl-1,4,6,7-tetrahydro-5H-imidazo[4,5-c]pyridin-5-yl)ethyl)bicyclo[2.2.1]heptane-1-carboxylic acid]"
5,78.9 nM,"Cn1c(C(=O)Nc2cccc(-c3cccc(NC(=O)c4cc5c(cn4)CN(CCC(C)(C)O)CC5)c3Cl)c2Cl)nc2c1CCN(CCC13CCC(C(=O)O)(CC1)C3)C2 [Example 13, 4-(2-(2-((2,2′-dichloro-3′-(7-(3-hydroxy-3-methylbutyl)-5,6,7,8-tetrahydro-2,7-naphthyridine-3-carboxamido)-[1,1′-biphenyl]-3-yl)carbamoyl)-1-methyl-1,4,6,7-tetrahydro-5H-imidazo[4,5-c]pyridin-5-yl)ethyl)bicyclo[2.2.1]heptane-1-carboxylic acid]"
6,83.5 nM,"CN(C)C(=O)CCCCN1CCc2cc(C(=O)Nc3cccc(-c4cccc(NC(=O)c5nc6c(n5C)CCN(CCC57CCC(C(=O)O)(CC5)C7)C6)c4Cl)c3Cl)ncc2C1 [Example 16, 4-(2-(2-((2,2′-dichloro-3′-(7-(5-(dimethylamino)-5-oxopentyl)-5,6,7,8-tetrahydro-2,7-naphthyridine-3-carboxamido)-[1,1′-biphenyl]-3-yl)carbamoyl)-1-methyl-1,4,6,7-tetrahydro-5H-imidazo[4,5-c]pyridin-5-yl)ethyl)bicyclo[2.2.1]heptane-1-carboxylic acid]"
7,90.7 nM,"CC(C)N1CCc2cc(C(=O)Nc3cccc(-c4cccc(NC(=O)c5nc6c(n5C)CCN(CCC57CCC(C(=O)O)(CC5)C7)C6)c4Cl)c3Cl)ncc2C1C (stereo not shown) [Example 18, 4-(2-(2-((2,2′-dichloro-3′-(7-isopropyl-8-methyl-5,6,7,8-tetrahydro-2,7-naphthyridine-3-carboxamido)-[1,1′-biphenyl]-3-yl)carbamoyl)-1-methyl-1,4,6,7-tetrahydro-5H-imidazo[4,5-c]pyridin-5-yl)ethyl) bicyclo[2.2.1]heptane-1-carboxylic acid]"
8,58.8 nM,"CC(C)N1CCc2cc(C(=O)Nc3cccc(-c4cccc(NC(=O)c5nc6c(n5C)CCN(CC57CCC(C(=O)O)(CC5)C7)C6)c4Cl)c3Cl)ncc2C1 [Example 19, 4-((2-((2,2′-dichloro-3′-(7-isopropyl-5,6,7,8-tetrahydro-2,7-naphthyridine-3-carboxamido)-[1,1′-biphenyl]-3-yl)carbamoyl)-1-methyl-1,4,6,7-tetrahydro-5H-imidazo[4,5-c]pyridin-5-yl)methyl)bicyclo[2.2.1] heptane-1-carboxylic acid]"
9,60.7 nM,"CC(C)N1CCc2cc(C(=O)Nc3cccc(-c4cccc(NC(=O)c5nc6c(n5C)CCN(CC[C@H]5CC[C@H](C(=O)O)CC5)C6)c4Cl)c3Cl)ncc2C1 [Example 23, (1R,4R)-4-(2-(2-((2,2′-dichloro-3′-(7-isopropyl-5,6,7,8-tetrahydro-2,7-naphthyridine-3-carboxamido)-[1,1′-biphenyl]-3-yl)carbamoyl)-1-methyl-1,4,6,7-tetrahydro-5H-imidazo[4,5-c]pyridin-5-yl)ethyl) cyclohexane-1-carboxylic acid]"
10,83.2 nM,"Cn1c(C(=O)Nc2cccc(-c3cccc(NC(=O)c4cc5c(cn4)CN([C@H]4CCC[C@@H]4O)CC5)c3Cl)c2Cl)nc2c1CCN(CCC13CCC(C(=O)O)(CC1)C3)C2 [Example 61, 4-(2-(2-((2,2′-dichloro-3′-(7-((1S,2S)-2-hydroxycyclopentyl)-5,6,7,8-tetrahydro-2,7-naphthyridine-3-carboxamido)-[1,1′-biphenyl]-3-yl)carbamoyl)-1-methyl-1,4,6,7-tetrahydro-5H-imidazo[4,5-c]pyridin-5-yl)ethyl)bicyclo[2.2.1]heptane-1-carboxylic acid]"
11,76.3 nM,"Cn1c(C(=O)Nc2cccc(-c3cccc(NC(=O)c4cc5c(cn4)CN(CC4(O)CC4)CC5)c3Cl)c2Cl)nc2c1CCN(CCC13CCC(C(=O)O)(CC1)C3)C2 [Example 62, 4-(2-(2-((2,2′-dichloro-3′-(7-((1-hydroxycyclopropyl)methyl)-5,6,7,8-tetrahydro-2,7-naphthyridine-3-carboxamido)-[1,1′-biphenyl]-3-yl)carbamoyl)-1-methyl-1,4,6,7-tetrahydro-5H-imidazo[4,5-c]pyridin-5-yl)ethyl)bicyclo[2.2.1]heptane-1-carboxylic acid]"
12,104 nM,"Cn1c(C(=O)Nc2cccc(-c3cccc(NC(=O)c4cc5c(cn4)CN([C@H]4CC[C@H](O)CC4)CC5)c3Cl)c2Cl)nc2c1CCN(CCC13CCC(C(=O)O)(CC1)C3)C2 [Example 63, 4-(2-(2-((2,2′-dichloro-3′-(7-((1R,4R)-4-hydroxycyclohexyl)-5,6,7,8-tetrahydro-2,7-naphthyridine-3-carboxamido)-[1,1′-biphenyl]-3-yl)carbamoyl)-1-methyl-1,4,6,7-tetrahydro-5H-imidazo[4,5-c]pyridin-5-yl)ethyl)bicyclo[2.2.1]heptane-1-carboxylic acid]"
13,155 nM,"Cn1c(C(=O)Nc2cccc(-c3cccc(NC(=O)c4cc5c(cn4)CN(C4CCCC4)CC5)c3Cl)c2Cl)nc2c1CCN(CCC13CCC(C(=O)O)(CC1)C3)C2 [Example 64, 4-(2-(2-((2,2′-dichloro-3′-(7-cyclopentyl-5,6,7,8-tetrahydro-2,7-naphthyridine-3-carboxamido)-[1,1′-biphenyl]-3-yl)carbamoyl)-1-methyl-1,4,6,7-tetrahydro-5H-imidazo[4,5-c]pyridin-5-yl)ethyl)bicyclo [2.2.1]heptane-1-carboxylic acid]"
14,122 nM,"Cn1c(C(=O)Nc2cccc(-c3cccc(NC(=O)c4cc5c(cn4)CN(C4CCC(C)(C(=O)O)CC4)CC5)c3Cl)c2Cl)nc2c1CCN(CCC13CCC(C(=O)O)(CC1)C3)C2 (stereo not shown) [Example 65, 4-(2-(2-((3′-(7-(4-carboxy-4-methylcyclohexyl)-5,6,7,8-tetrahydro-2,7-naphthyridine-3-carboxamido)-2,2′-dichloro-[1,1′-biphenyl]-3-yl)carbamoyl)-1-methyl-1,4,6,7-tetrahydro-5H-imidazo[4,5-c]pyridin-5-yl)ethyl)bicyclo[2.2.1]heptane-1-carboxylic acid]"
15,> 10000 nM,CC(C)N1CCc2cc(C(=O)Nc3cccc(-c4cccc(NC(=O)c5cc6c(cn5)CN(C(C)C)CC6)c4Cl)c3Cl)ncc2C1 [Example 66]
16,1660 nM,"CC(C)N1CCc2cc(C(=O)Nc3cccc(-c4cccc(NC(=O)c5cc6c(cn5)CN(CCC57CCC(C(=O)O)(CC5)C7)CC6)c4Cl)c3Cl)ncc2C1 [Example 67, 4-(2-(6-((2,2′-dichloro-3′-(7-isopropyl-5,6,7,8-tetrahydro-2,7-naphthyridine-3-carboxamido)-[1,1′-biphenyl]-3-yl)carbamoyl)-3,4-dihydro-2,7-naphthyridin-2(1H)-yl)ethyl)bicycio[2.2.1]heptane-1-carboxylic acid]"
